Measurements taken from patent publication US10350271B2, “Lipidated peptides for lowering blood glucose” (USTAV ORGANICKE CHEMIE A BIOCHEMIE AKADEMIE VED CR, V.V.I., priority 2014, dated 2019).
Marks after values point to notes of the source that are not given here. Numbered stars: 1 amine (or outer) side, 2 acyl side, 3 side chain; on linkers, the order of the positions; unused ones are H or OH. Side chains are listed from the residue outwards. Ends that are not written are not given here. Peptide text beside a SMILES is read from it. * marks the point of attachment. γGlu = O=C(O)[C@H](CCC(=O)[*:2])N[*:1]; Palmitoyl = CCCCCCCCCCCCCCCC(=O)*

Columns and labels:
ZDF diabetic rats = test: 21 days repeated administration in diabetic ZDF rats (food intake, OGTT, metabolic parameters); format: in vivo; conditions: for Cumulative food intake Day 1 / Cumulative food intake Day 1-7 / Cumulative food intake Day 1-14 / Cumulative food intake Day 1-21 / Cholesterol / Insulin / Leptin: ZDF rats
Method: Rats were subjected to a 21-day food intake experiment. ZDF rats were IP injected with either phosphate-buffered saline pH6 (control) or compound 43 or 52 at a dose of 1 and 5 mg/kg (n=8), twice a day for 21 days. After 21 days of treatment, rats were fasted overnight and OGTT was performed. After initial blood glucose measurement, 2 g/kg glucose solution was administered by oral gavage. Blood glucose was then measured at 15, 30, 60, 90, 120 and 180 min.
(§1) NMRI mice, C57BL/6 mice, and Wistar rats (AnLab, Prague, Czech Republic) were housed in a temperature of 23° C. and a daily cycle of 12 h light and dark (light from 6:00). They were given ad libitum water and a standard chow diet that contained 25, 9 and 66% of calories of protein, fat and carbohydrate respectively. Energy content of the feed was 3.4 kcal/g (St-1, Mlýn Kocanda, Czech Republic). Db/db mice and their controls (C57BL/6 background) were obtained from Taconic (Denmark), housed under the same conditions as described above, and fed by Altromin (Taconic, Denmark). ZDF-Lepr^fa/Crl, diabetic fa/fa male rats were obtained from Charles River (France), housed under same conditions as described above, and fed with a Purina 5008 diet (IPS Product Supplies Limited, UK). All experiments followed the ethical guidelines for animal experiments and the law of the Czech Republic Nr. 246/1992.
The ZDF rats were treated with vehicle or analogs 43 and 52 (1 and 5 mg/kg IP) dissolved in phosphate buffered saline, pH 6, twice daily for 21 days and sacrificed on day 22. Food intake was measured daily up to day 22. Leptin, insulin, cholesterol and HbA1c levels were measured on day 21. Glucose tolerance test (OGTT) was also performed on day 21.
Rats were subjected to a 21-day food intake experiment. ZDF rats were IP injected with either phosphate-buffered saline pH6 (control) or compound 43 or 52 at a dose of 1 and 5 mg/kg (n=8), twice a day for 21 days. After 21 days of treatment, rats were fasted overnight and OGTT was performed. After initial blood glucose measurement, 2 g/kg glucose solution was administered by oral gavage. Blood glucose was then measured at 15, 30, 60, 90, 120 and 180 min. […] The statistical significance, denoted by the asterisk (*), was *P<0.05.

[1] = target: T1, human PrRP receptor GPR10 (Homo sapiens, UniProt P49683); test: Competitive binding in CHO cells transfected with human GPR10 (human 125I-PrRP31)
T1 construct: host or cells: CHO cells
T1 sequence (P49683 1-370): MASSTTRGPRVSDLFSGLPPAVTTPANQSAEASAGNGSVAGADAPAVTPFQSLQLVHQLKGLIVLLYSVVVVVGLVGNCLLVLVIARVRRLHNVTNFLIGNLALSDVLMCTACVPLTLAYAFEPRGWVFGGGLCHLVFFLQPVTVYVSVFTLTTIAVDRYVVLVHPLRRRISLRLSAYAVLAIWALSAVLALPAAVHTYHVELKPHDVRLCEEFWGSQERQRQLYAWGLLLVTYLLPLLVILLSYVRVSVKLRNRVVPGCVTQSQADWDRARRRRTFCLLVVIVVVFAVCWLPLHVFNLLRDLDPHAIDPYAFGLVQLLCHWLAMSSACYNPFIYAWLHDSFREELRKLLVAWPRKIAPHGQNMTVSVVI
Outline: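 GPR10-transfected CHO cells (40-80 thousand/well) incubated 60 min at room temperature with 5×10^-11 mol·l^-1 human 125I-PrRP31 and unlabeled analog at 10^-11 to 10^-4 mol·l^-1 in Tris binding buffer pH 7.4. Cells solubilized in 0.1 mol/l NaOH, γ-counted; one-site nonlinear regression fit.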

C57BL/6 mice = test: Food intake in fasted mice after SC injection; format: in vivo; conditions: 5 mg/kg SC, 45 min after injection
Outline: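 Overnight-fasted animals (food removed 17 h before dosing, water available) in individual cages got saline, PrRP or lipidated PrRP analogs SC at 1-10 mg/kg.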

rat PrRP receptor = target: T2, rat PrRP receptor (Rattus norvegicus, UniProt Q64121); test: Competitive binding in RC-4B/C rat pituitary cells (125I-rat PrRP31)
T2 construct: host or cells: RC-4B/C rat pituitary cell line
T2 sequence (Q64121 1-370): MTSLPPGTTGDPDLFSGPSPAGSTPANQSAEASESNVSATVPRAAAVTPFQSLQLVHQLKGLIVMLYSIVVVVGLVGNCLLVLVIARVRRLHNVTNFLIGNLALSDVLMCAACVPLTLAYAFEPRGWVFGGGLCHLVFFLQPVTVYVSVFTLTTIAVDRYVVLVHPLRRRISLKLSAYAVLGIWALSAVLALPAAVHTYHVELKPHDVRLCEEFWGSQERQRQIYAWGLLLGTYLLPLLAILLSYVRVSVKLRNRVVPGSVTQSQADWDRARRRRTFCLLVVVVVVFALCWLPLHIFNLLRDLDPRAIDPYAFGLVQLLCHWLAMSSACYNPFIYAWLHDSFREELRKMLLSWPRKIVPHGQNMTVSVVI
Outline: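 Intact rat pituitary RC-4B/C cells incubated 60 min at room temperature with […] rat 125I-PrRP31 and unlabeled analog (10^−11 to 10^−4 mol·l^−1) in HEPES pH 7.4 buffer. Cell-bound radioactivity γ-counted after NaOH lysis; one-site competition fit.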

Wistar rats = test: Food intake in fasted rats after SC injection; format: in vivo; conditions: overnight fasted rats, compared to controls given vehicle
Method: as §1
In experiments with C57BL/6 mice or Wistar rats, food intake was measured with overnight fasted animals in individual cages. Food was withdrawn 17 hours prior to injection of lipidated analog of prolactin releasing peptide (PrRP); free access to water was maintained. The administration of either saline, PrRP, or lipidated analogs was performed by SC injection at doses of 1-10 mg/kg (which corresponded to a volume of 0.2 ml/mouse and 0.1 ml/100 g weight of rat). Fifteen minutes after the lipidated analog of prolactin releasing peptide (PrRP) administration, the mice were given pre-weighed food. The food was then weighed every 30 minutes for 5-10 hours. The administration of each dose was performed at least twice, and each group of mice consisted of at least 6 mice.

[2] = tested on: MAPK/ERK1/2 signaling pathway; conditions: positive control; cited from earlier work

CCCCCCCCCCCCCCCC(=O)N[C@@H](CCC(=O)NCCCC[C@H](NC(=O)[C@@H](NC(=O)[C@H](CCC(=O)O)NC(=O)[C@H](CCSC)NC(=O)[C@H](CO)NC(=O)[C@H](Cc1c[nH]cn1)NC(=O)[C@H](CCCNC(=N)N)NC(=O)[C@H](Cc1c[nH]cn1)NC(=O)[C@@H](NC(=O)[C@H](CCCNC(=N)N)NC(=O)[C@@H](N)CO)[C@@H](C)O)[C@@H](C)CC)C(=O)N[C@H](C(=O)N1CCC[C@H]1C(=O)N[C@@H](CC(=O)O)C(=O)N[C@H](C(=O)N[C@@H](CC(N)=O)C(=O)N1CCC[C@H]1C(=O)N[C@@H](C)C(=O)N[C@@H](Cc1c[nH]c2ccccc12)C(=O)N[C@@H](Cc1ccc(O)cc1)C(=O)N[C@@H](C)C(=O)N[C@@H](CO)C(=O)N[C@@H](CCCNC(=N)N)C(=O)NCC(=O)N[C@H](C(=O)N[C@@H](CCCNC(=N)N)C(=O)N1CCC[C@H]1C(=O)N[C@H](C(=O)NCC(=O)N[C@@H](CCCNC(=N)N)C(=O)N[C@@H](Cc1ccccc1)C(N)=O)C(C)C)[C@@H](C)CC)[C@@H](C)CC)[C@@H](C)O)C(=O)O [Analog 52] (H-SRTHRHSMEIK([γGlu-Palmitoyl])TPDINPAWYASRGIRPVGRF-NH2)
Food intake in free fed ZDF diabetic rats (ZDF diabetic rats; 5 mg/kg IP twice daily, vs vehicle): significantly lowered
Cumulative food intake Day 1 (ZDF diabetic rats; 1 mg/kg IP twice daily): 43.0 ± 2.2 g
Cumulative food intake Day 1-7 (ZDF diabetic rats; 1 mg/kg IP twice daily): 306.9 ± 11.8 g
Cumulative food intake Day 1-14 (ZDF diabetic rats; 1 mg/kg IP twice daily): 570.9 ± 17.1 g
Cumulative food intake Day 1-21 (ZDF diabetic rats; 1 mg/kg IP twice daily): 811.5 ± 23.6 g
Cumulative food intake Day 1 (ZDF diabetic rats; 5 mg/kg IP twice daily): 42.4 ± 2.1 g
Cumulative food intake Day 1-7 (ZDF diabetic rats; 5 mg/kg IP twice daily): 287.8 ± 12.5* g
Cumulative food intake Day 1-14 (ZDF diabetic rats; 5 mg/kg IP twice daily): 559.0 ± 21.0* g
Cumulative food intake Day 1-21 (ZDF diabetic rats; 5 mg/kg IP twice daily): 814.8 ± 26.1 g
Cholesterol (ZDF diabetic rats; day 21, 1 mg/kg IP twice daily): 3.71 ± 0.16 mmol/L
Insulin (ZDF diabetic rats; day 21, 1 mg/kg IP twice daily): 268.94 ± 43.40 pmol/L
Leptin (ZDF diabetic rats; day 21, 1 mg/kg IP twice daily): 16336 ± 1466 pg/mL
Cholesterol (ZDF diabetic rats; day 21, 5 mg/kg IP twice daily): 3.19 ± 0.16 mmol/L
Insulin (ZDF diabetic rats; day 21, 5 mg/kg IP twice daily): 183.35 ± 37.49 pmol/L
Leptin (ZDF diabetic rats; day 21, 5 mg/kg IP twice daily): 11372 ± 427 pg/mL
Ki [1]: 5.95 ± 0.72 nM
% of PrRP31, GPR10 human receptor transfected in CHO cells ([1]; affinity relative to PrRP31): 65%
Food intake in mice % of saline-treated group (C57BL/6 mice): 10%
Ki (rat PrRP receptor): 4.23 ± 2.11 nM
% of PrRP31, RC-4B/C rat pituitary cells (rat PrRP receptor; affinity relative to PrRP31): 57%
Food intake in rats (Wistar rats): significantly reduced

PrRP31: prolactin-releasing peptide composed of 31 amino acids, positive control; rat or human form not stated (SRAHQHSMETRTPDINPAWYTGRGIRPVGRF-NH2; ends and bridges not checked)
Initiation of MAPK/ERK1/2 signaling [2]: shown to initiate MAPK/ERK1/2 signaling
